A short description of data set [1]: Average particle size of milled nanoparticle suspensions (light scattering). As to conditions: 15 gm agent and 3 gm Pluronic F108 per 100 ml, light scattering. On the procedure:
WIN 70146 (an iodinated X-ray contrast agent prepared according to Example 23 below) was added to each of 3×1.5 oz brown glass bottles containing approximately 12 ml of zirconium silicate, 1.1 mm diameter beads in an amount sufficient to be 15% (wt/vol %) of the final suspension. Bottle A was also made 3% (wt/vol %) Pluronic F-68 while bottle B was made 3% (wt/vol %)) Pluronic F-108 and bottle C was made 3% (wt/vol %) Tetronic T-908. The resulting suspensions were milled at approx 150 rpm for a total of 9 days with estimates of particle size determined at various intervals as detailed below.
WIN 70146 was milled with 1.1 mm diameter zirconium silicate beads for 3 days under aseptic conditions. The concentration of this agent was 15% WIN 70146 in the presence of 4% Pluronic F-108. No additional salts or surfactants were added.
WIN 70146 was milled with 1.1 mm diameter zirconium silicate beads in the presence of Pluronic F-108 for 3 days. […] At this point, sterile PEG 400 was added to the suspension such that at completion, the formulation contained 15% (wt/vol %) WIN 70146, 3% (wt/vol %) Pluronic F-108 and 10% PEG 400.
(§1) This suspension was then diluted in water to various levels listed below. The percent of incident light transmitted was then determined for each suspension at several wavelengths (see below). The suspensions were then dissolved by addition of methanol and examined for percent transmitted light against an equivalent solvent blank.
A formulation of WIN 70177 (an iodinated X-ray contrast agent prepared according to Example 24) was prepared as 15 gm of WIN 70177/100 ml of suspension and 4.25-gm of Pluronic F108/100 ml of suspension and 10 gm of PEG 400/100 ml of suspension.
A formulation of WIN 67722 (an iodinated X-ray contrast agent as described in U.S. Pat. No. 5,322,679) was prepared as in Example 1 using 3% Pluronic F108 and 15% PEG 1450.
as §1

The nature of data set [2]: Residence within the vasculature after injection. It counts as in vivo. The following applies: nanoparticles. The protocol:
WIN 72115 was designed to be excited with incident radiation from an Argon Ion laser (in the green, near 514 nm) and emit light at wavelengths above that value. Thus, after injection, illumination of the patient with green light would stimulate emission of light of a slightly different wavelength that could be used for diagnostic purposes. The key features of this agent are that it can be prepared as nanoparticles, remain within the vasculature for greater than 15 minutes, provide both scattering and fluorescence contrast for light imaging. In place of WIN 72115, the photolabelled agent of Example 22 below may be used.

Regarding `CCOC(=O)c1c(I)c(NS(=O)(=O)c2cccc3c(N(C)C)cccc23)c(I)c(N(CC)C(C)=O)c1I` [WIN 72115, 3-(N-Acetyl-N-ethylamino)-5-[(5-dimethylamino-1-naphthylsulfonyl)amino]-2,4,6-triiodobenzoic Acid Ethyl Ester], the melting point fell in the range of 238 to 240 °C. In data set [1], this compound yielded an average particle size of 225 nm. In data set [2], the “Time remaining within the vasculature” value is recorded as “greater than 15 minutes”.

Source of the values: US7014839B2, “Light imaging contrast agents” (Amersham Health AS, priority 1995, dated 2006).
